Assay results from patent US20120245199A1, “[4 [4-(AMINOMETHYL-2-FLUORO-PHENYL)-PIPERIDIN-1-YL]-(1H-PYRROLO-PYRIDIN-YL)-METHANONES AND SYNTHESIS THEREOF” (SANOFI, priority 2009, published 2012).
Values joined by “and” are separate entries in the source; they are usually repeats but may differ in a detail not shown here. Equal entries are not always repeated. Structures can show the parent of a compound that is named as a salt.

Experiments:
[1] = target: T1, recombinant human beta tryptase (Homo sapiens, UniProt Q15661); assay: beta-Tryptase inhibition, chromogenic enzyme assay (S2366 substrate); type: biochemical; settings: Ki calculated from IC50: Ki=IC50/(1+[Substrate]/Km), 0.5 mM S2366, room temperature
T1 construct: host or cells: yeast cells
T1 sequence (Q15661 31-275): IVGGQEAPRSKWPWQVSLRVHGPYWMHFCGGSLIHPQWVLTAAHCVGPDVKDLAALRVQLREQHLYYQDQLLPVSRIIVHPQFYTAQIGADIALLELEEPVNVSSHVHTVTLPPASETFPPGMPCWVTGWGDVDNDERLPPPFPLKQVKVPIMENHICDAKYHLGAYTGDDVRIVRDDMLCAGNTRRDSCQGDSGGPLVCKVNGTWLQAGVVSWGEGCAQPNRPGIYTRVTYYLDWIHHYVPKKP
Source text: Inhibition of this catalytic activity may be measured by the in vitro enzyme assay and the cellular assay.
Tryptase inhibition activity is confirmed using either isolated human lung tryptase or recombinant human beta tryptase expressed in yeast cells. Essentially equivalent results are obtained using isolated native enzyme or the expressed enzyme. The assay procedure employs a 96 well microplate (Costar 3590) using L-pyroglutamyl-L-prolyl-L-arginine-para-nitroanilide (S2366: Quadratech) as substrate (essentially as described by McEuen et. al. Biochem Pharm, 1996, 52, pages 331-340). Assays are performed at room temperature using 0.5 mM substrate (2×Km) and the microplate is read on a microplate reader (Beckman Biomek Plate reader) at 405 nm wavelength.
S2366 (Stock solutions of 2.5 mM).
Purified recombinant beta Tryptase Stocks of 310 μg/mL.
• Add 60 μL of diluted substrate (final concentration of 500 μM in assay buffer) to each well • Add compound in duplicates, final concentration of 20 μM, volume 20 μL • Add enzyme at a final concentration of 50 ng/mL in a volume of 20 μL • Total volume for each well is 100 μL • Agitate briefly to mix and incubate at room temp in the dark for 30 minutes • Read absorbencies at […] Each plate has the following controls: • Totals: 60 μL of substrate, 20 μL of buffer (with 0.2% final concentration of DMSO), 20 μL of enzyme • Non-specific: 60 μL of substrate, 40 μL of buffer (with 0.2% DMSO) • Totals: 60 μL of substrate, 20 μL of buffer (No DMSO), 20 μL of enzyme • Non-specific: 60 μL of substrate, 40 μL of buffer (No DMSO)
The protocol is essentially the same as above except that the compound is added in duplicates at the following final concentrations: 0.01, 0.03, 0.1, 0.3, 1, 3, 10 μM (All dilutions carried out manually). For every assay, whether single point or IC50 determination, a standard compound is used to derive IC50 for comparison. From the IC50 value, the Ki can be calculated using the following formula: Ki=IC50/(1+[Substrate]/Km).

Structure (SMILES) | melting point [°C] | Ki [1]
COCCn1cc(C(=O)N2CCC(c3cc(CN)ccc3F)CC2)c2ccnc(Cl)c21 (as salt: hydrochloride) [Example 13, [4-(5-Aminomethyl-2-fluoro-phenyl)-piperidin-1-yl]-[7-chloro-1-(2-methoxy-ethyl)-1H-pyrrolo[2,3-c]pyridin-3-yl]-methanone dihydrochloride] | 163 to 167 | –
NCc1ccc(F)c(C2CCN(C(=O)c3cc4cccnc4[nH]3)CC2)c1 [Example 1, [4-(5-Aminomethyl-2-fluoro-phenyl)-piperidin-1-yl]-(1H-pyrrolo[2,3-b]pyridin-2-yl)-methanone dihydrochloride] | – | 0.221 µM
COCCn1c(C(=O)N2CCC(c3cc(CN)ccc3F)CC2)cc2cccnc21 [Example 2, [4-(5-Aminomethyl-2-fluoro-phenyl)-piperidin-1-yl]-[1-(2-methoxy-ethyl)-1H-pyrrolo[2,3-b]pyridin-2-yl]-methanone dihydrochloride] | – | 0.538 µM
COCCn1c(C(=O)N2CCC(c3cccc(CN)c3)CC2)cc2cccnc21 [Example 3, [4-(3-Aminomethyl-phenyl)-piperidin-1-yl]-[1-(2-methoxy-ethyl)-1H-pyrrolo[2,3-b]pyridin-2-yl]-methanone dihydrohydrochloride, dihydrochloride] | – | 0.915 µM
COCCn1c(C(=O)N2CCC(c3cc(CN)ccc3F)CC2)cc2cnccc21 [Example 4, [4-(5-Aminomethyl-2-fluoro-phenyl)-piperidin-1-yl]-[1-(2-methoxy-ethyl)-1H-pyrrolo[3,2-c]pyridin-2-yl]-methanone hydrochloride] | – | 1.1 µM
NCc1ccc(F)c(C2CCN(C(=O)c3c[nH]c4cnccc34)CC2)c1 [Example 5, [4-(5-Aminomethyl-2-fluoro-phenyl)-piperidin-1-yl]-(1H-pyrrolo[2,3-c]pyridin-3-yl)-methanone dihydrochloride] | – | 0.22 µM
COCCn1cc(C(=O)N2CCC(c3cccc(CN)c3)CC2)c2ccncc21 [Example 8, [4-(3-Aminomethyl-phenyl)-piperidin-1-yl]-[1-(2-methoxy-ethyl)-1H-pyrrolo[2,3-c]pyridin-3-yl]-methanone dihydrochloride] | – | 0.099 µM
COCCn1cc(C(=O)N2CCC(c3cc(CN)ccc3F)CC2)c2ccncc21 [Example 9, [4-(5-Aminomethyl-2-fluoro-phenyl)-piperidin-1-yl]-[1-(2-methoxy-ethyl)-1H-pyrrolo[2,3-c]pyridin-3-yl]-methanone dihydrochloride] | – | 0.035 µM
COCCn1cc(C(=O)N2CCC(c3cc(CN)ccc3F)CC2)c2cnccc21 [Example 10, [4-(5-Aminomethyl-2-fluoro-phenyl)-piperidin-1-yl]-[1-(2-methoxy-ethyl)-1H-pyrrolo[3,2-c]pyridin-3-yl]-methanone dihydrochloride] | – | 0.18 µM
COCCOc1nccc2c(C(=O)N3CCC(c4cc(CN)ccc4F)CC3)cn(CCOC)c12 [Example 11, [4-(5-Aminomethyl-2-fluoro-phenyl)-piperidin-1-yl]-[7-(2-methoxy-ethoxy)-1-(2-methoxy-ethyl)-1H-pyrrolo[2,3-c]pyridin-3-yl]-methanone dihydrochloride] | – | 0.166 µM
COCCn1cc(C(=O)N2CCC(c3cc(CN)ccc3F)CC2)c2nccc(C)c21 [Example 12, [4-(5-Aminomethyl-2-fluoro-phenyl)-piperidin-1-yl]-[1-(2-methoxy-ethyl)-7-methyl-1H-pyrrolo[3,2-b]pyridin-3-yl]-methanone dihydrochloride] | – | 0.023 µM and 0.013 µM
COCCn1cc(C(=O)N2CCC(c3cc(CN)ccc3F)CC2)c2ccnc(Cl)c21 [Example 13, [4-(5-Aminomethyl-2-fluoro-phenyl)-piperidin-1-yl]-[7-chloro-1-(2-methoxy-ethyl)-1H-pyrrolo[2,3-c]pyridin-3-yl]-methanone dihydrochloride] | – | 0.025 µM
COCCn1cc(C(=O)N2CCC(c3cc(CN)ccc3F)CC2)c2ccnc(C)c21 [Example 14, [4-(5-Aminomethyl-2-fluoro-phenyl)-piperidin-1-yl]-[1-(2-methoxy-ethyl)-7-methyl-1H-pyrrolo[2,3-c]pyridin-3-yl]-methanone] | – | 0.025 µM
COCCn1cc(C(=O)N2CCC(c3cc(CN)ccc3F)CC2)c2nccc(OC)c21 [Example 15, [4-(5-Aminomethyl-2-fluoro-phenyl)-piperidin-1-yl]-[7-methoxy-1-(2-methoxy-ethyl)-1H-pyrrolo[3,2-b]pyridin-3-yl]-methanone dihydrochloride] | – | 0.0099 µM
NCc1ccc(F)c(C2CCN(C(=O)c3cn(CCc4ccccc4)c4cccnc34)CC2)c1 [Example 16, [4-(5-Aminomethyl-2-fluoro-phenyl)-piperidin-1-yl]-(1-phenethyl-1H-pyrrolo[3,2-b]pyridin-3-yl)-methanone dihydrochloride] | – | 0.0029 µM
NCc1ccc(F)c(C2CCN(C(=O)c3cn(CCN4CCCCC4)c4cccnc34)CC2)c1 [Example 17, [4-(5-Aminomethyl-2-fluoro-phenyl)-piperidin-1-yl]-[1-(2-piperidin-1-yl-ethyl)-1H-pyrrolo[3,2-b]pyridin-3-yl]-methanone trihydrochloride] | – | 0.29 µM
NCc1ccc(F)c(C2CCN(C(=O)c3cn(CCN4CCCC4)c4cccnc34)CC2)c1 [Example 18, [4-(5-Aminomethyl-2-fluoro-phenyl)-piperidin-1-yl]-[1-(2-pyrrolidin-1-yl-ethyl)-1H-pyrrolo[3,2-b]pyridin-3-yl]-methanone trihydrochloride] | – | 0.277 µM
NCc1ccc(F)c(C2CCN(C(=O)c3c[nH]c4ncccc34)CC2)c1 [Example 19, [4-(5-Aminomethyl-2-fluoro-phenyl)-piperidin-1-yl]-(1H-pyrrolo[2,3-b]pyridin-3-yl)-methanone dihydrochloride] | – | 0.203 µM
COCCn1cc(C(=O)N2CCC(c3cc(CN)ccc3F)CC2)c2cccnc21 [Example 20, [4-(5-Aminomethyl-2-fluoro-phenyl)-piperidin-1-yl]-[1-(2-methoxy-ethyl)-1H-pyrrolo[2,3-b]pyridin-3-yl]-methanone dihydrochloride] | – | 0.092 µM
